In patent EP0084597A1, “Triazole and imidazole derivatives and pharmaceutical preparations containing them” (BAYER AG, priority 1981, dated 1983):
Converted amounts (≈) assume the structure as drawn.

What was measured:
[1] = test system: Trichophyton mentagrophytes; experiment: Antimycotic in-vivo activity (local) in experimental guinea pig trichophytosis; set-up: species or system Meerschweinchen; key to Wirkung: +++++: sehr gute Wirkung = keine Infektionszeichen am 12.-15.Tag p.i.; ++++: gute Wirkung = geringe Rötung, vereinzelt Schuppen; +++: Wirkung = Rötung, Schuppung, ohne Haarausfall; ++: schwache Wirkung = Rötung, Schuppung, Haarausfall; +: Spur Wirkung = flächiger Haarausfall, entzündliche Hautreaktion; details: for Wirkungen: local treatment; for Wirkung: local treatment 1x daily from day 3 p.i. with a 15% solution in dimethylsulfoxide : glycerol = 1 : 4, signs of infection day 12-15 p.i.
Trichophyton mentagr. = experiment: Antimycotic in-vitro activity, serial dilution test (MIC); format: cell-based, Trichophyton mentagrophytes; details: Sabouraud medium, 20°C, 96 hours, inoculum 5 x 10^4 germs/ml; for MIC: Trichophyton, read-out: MHK-Werte in γ/ml Nährmedium, Trichophyton mentagr.
Description: (§1) Die in-vitro-Prüfungen wurden im Reihenverdünnungstest mit Keiminokula von durchschnittlich 5 x 10^4 Keimen/ml Substrat durchgeführt. Als Nährmedium dienten • a) für Dermatophyten und Schimmelpilze: Sabourand's milieu d'epreuve • b) für Hefen: Fleischextrakt-Traubenzucker-Bouillon.
(§2) Die Bebrütungstemperatur betrug 20°C, die Bebrütungsdauer lag bei 24 bis 96 Stunden bei Hefen und 96 Stunden bei Dermatophyten und Schimmelpilzen.

Aspergillus fumig. = experiment: as above; format: cell-based, Aspergillus fumigatus; details: Sabouraud medium, 20°C, inoculum 5 x 10^4 germs/ml; for MIC: Aspergillus, 96 h, read-out: MHK-Werte in γ/ml Nährmedium, Aspergillus fumig.
Description: as §1, §2

[2] = test system: Dermatophyten und Schimmelpilze, Hefen; experiment: Antimycotic in-vitro activity, serial dilution test, overall comparison with known compounds; format: cell-based; details: compared with known compounds (A),(B),(C) and (D)
Description: as §1, §2

Candida-Zellen = experiment: Antimycotic in-vivo activity (oral) in mouse candidosis; set-up: species or system Mäuse vom Typ SPF-CF1; key: +++++: sehr gute Wirkung = 90 % Ueberlebende am 6.Tag p.i.; ++++: gute Wirkung = 80 % Ueberlebende am 6.Tag p.i.; +++: Wirkung = 60 % Ueberlebende am 6.Tag p.i.; ++: schwache Wirkung = 40 % Ueberlebende am 6.Tag p.i.; +: Spur Wirkung; k.W.: keine Wirkung
Description: Mäuse vom Typ SPF-CF1 wurden intravenös mit 1 - 2 x 10^6 logarithmisch wachsenden Candida-Zellen, die in physiologischer Kochsalzlösung suspendiert werden, infiziert. Eine Stunde vor und sieben Stunden nach der Infektion werden die Tiere mit jeweils 50 - 100 mg/kg Körpergewicht der Präparate oral behandelt.
Uhbehandelte Tiere starben 3 bis 6 Tage post infektionem. Die Ueberlebensrate am 6.Tag post infektionem betrug bei uhbehandelten Kontrolltieren etwa 5 %.
• +++++ = sehr gute Wirkung = 90 % Ueberlebende am 6.Tag p.i. • ++++ = gute Wirkung = 80 % Ueberlebende am 6.Tag p.i. • +++ = Wirkung = 60 % Ueberlebende am 6.Tag p.i. • ++ = schwache Wirkung = 40 % Ueberlebende am 6.Tag p.i. • + = Spur Wirkung = k.W. = keine Wirkung

Microsporum canis = experiment: Antimycotic in-vitro activity, serial dilution test (MIC); format: cell-based; details: Sabouraud medium, 20°C, inoculum 5 x 10^4 germs/ml; for MIC: Microsporum canis, 96 h, read-out: MHK-Werte in γ/ml Nährmedium, Microsporum canis; for MHK-Werte in γ/ml Nährmedium, Microsporum canis: 96 hours
Description: as §1, §2

Torulopsis glabrata = experiment: as above; format: cell-based; details: meat extract-glucose broth, 20°C, 24 to 96 hours, inoculum 5 x 10^4 germs/ml; for MIC: Nakaseomyces glabratus, read-out: MHK-Werte in γ/ml Nährmedium, Torulopsis glabrata
Description: as §1, §2

Candida albicans = experiment: as above; format: cell-based; details: meat extract-glucose broth, 20°C, 24 to 96 hours, inoculum 5 x 10^4 germs/ml; for MIC: Candida albicans, read-out: MHK-Werte in γ/ml Nährmedium, Candida albicans
Description: as §1, §2

[3] = mice infected i.v. with 1 - 2 x 10^6 Candida cells, oral 50 - 100 mg/kg one hour before and seven hours after infection, survivors on day 6 p.i.
[4] = mouse candidosis, oral, compared with known compounds (A), (B), (C) and (D)

Row | MIC (Trichophyton mentagr.) | MIC (Aspergillus fumig.) | MIC (Microsporum canis) | MIC (Torulopsis glabrata) | MIC (Candida albicans) | SMILES | Wirkungen [1] | Wirkung [1] | antimykotische Wirkung [2] | Wirkung (Candida-Zellen; [3]) | Wirkung (Candida-Zellen; [4]) | MHK-Werte in γ/ml Nährmedium, Trichophyton mentagr. (Trichophyton mentagr.) | MHK-Werte in γ/ml Nährmedium, Aspergillus fumig. (Aspergillus fumig.; 96 hours) | MHK-Werte in γ/ml Nährmedium, Microsporum canis (Microsporum canis) | MHK-Werte in γ/ml Nährmedium, Torulopsis glabrata (Torulopsis glabrata) | MHK-Werte in γ/ml Nährmedium, Candida albicans (Candida albicans)
1 | < 1 µg/mL | 8 µg/mL (≈ 24.3 µM) | 8 µg/mL (≈ 24.3 µM) | < 1 µg/mL | < 1 µg/mL | Cc1cccc(Cl)c1Oc1ccc(C(O)Cn2cncn2)cc1 (stereo not drawn) [Beispiel 47] | bestimmte Wirkungen | ++++ | bessere antimykotische Wirkung | ++++ (gute Wirkung = 80 % Ueberlebende am 6.Tag p.i.) | bessere Wirkung | – | – | – | – | –
2 | 2 µg/mL (≈ 4.4 µM) | > 64 µg/mL | 32 µg/mL (≈ 70.4 µM) | < 1 µg/mL | < 1 µg/mL | CC(n1cncn1)C(O)(Cc1ccc(Cl)cc1)c1ccc(Oc2ccc(Cl)cc2)cc1 (stereo not drawn) [Beispiel 45] | bestimmte Wirkungen | + | bessere antimykotische Wirkung | + | bessere Wirkung | – | – | – | – | –
3 | < 1 µg/mL | > 64 µg/mL | 16 µg/mL (≈ 43 µM) | 4 µg/mL (≈ 10.8 µM) | < 1 µg/mL | CCCC(n1cncn1)C(C)(O)c1ccc(Oc2ccc(Cl)cc2)cc1 (stereo not drawn) [Beispiel 43] | bestimmte Wirkungen | +++ | bessere antimykotische Wirkung | +++++ (sehr gute Wirkung = 90 % Ueberlebende am 6.Tag p.i.) | bessere Wirkung | – | – | – | – | –
4 | < 1 µg/mL | 32 µg/mL (≈ 97 µM) | 8 µg/mL (≈ 24.3 µM) | 2 µg/mL (≈ 6.06 µM) | < 1 µg/mL | CC(C(O)c1ccc(Oc2ccc(Cl)cc2)cc1)n1cncn1 (stereo not drawn) [Beispiel 35] | bestimmte Wirkungen | +++ | bessere antimykotische Wirkung | +++ (Wirkung = 60 % Ueberlebende am 6.Tag p.i.) | bessere Wirkung | – | – | – | – | –
5 | < 1 µg/mL | 32 µg/mL (≈ 80.4 µM) | 8 µg/mL (≈ 20.1 µM) | 8 µg/mL (≈ 20.1 µM) | < 1 µg/mL | C=CCC(O)(c1ccc(Oc2ccc(Cl)cc2)cc1)C(CCC)n1cncn1 (stereo not drawn) [Beispiel 46] | – | + | bessere antimykotische Wirkung | ++++ (gute Wirkung = 80 % Ueberlebende am 6.Tag p.i.) | bessere Wirkung | – | – | – | – | –
6 | < 1 µg/mL | 32 µg/mL (≈ 93.1 µM) | – | – | – | CCC(C(O)c1ccc(Oc2ccc(Cl)cc2)cc1)n1cncn1 (single isomer, unassigned) [Beispiel 29] | bestimmte Wirkungen | +++ | bessere antimykotische Wirkung | +++++ (sehr gute Wirkung = 90 % Ueberlebende am 6.Tag p.i.) | bessere Wirkung | – | – | 8 µg/mL | 8 µg/mL | 8 µg/mL

The remaining lines, values behind:

Row | SMILES | MIC (Trichophyton mentagr.) | MIC (Aspergillus fumig.) | MIC (Microsporum canis) | MIC (Torulopsis glabrata) | MIC (Candida albicans) | Wirkungen [1] | Wirkung [1] | antimykotische Wirkung [2] | Wirkung (Candida-Zellen; [3]) | Wirkung (Candida-Zellen; [4]) | MHK-Werte in γ/ml Nährmedium, Trichophyton mentagr. (Trichophyton mentagr.) | MHK-Werte in γ/ml Nährmedium, Aspergillus fumig. (Aspergillus fumig.; 96 hours) | MHK-Werte in γ/ml Nährmedium, Microsporum canis (Microsporum canis) | MHK-Werte in γ/ml Nährmedium, Torulopsis glabrata (Torulopsis glabrata) | MHK-Werte in γ/ml Nährmedium, Candida albicans (Candida albicans)
7 | CCC(C(=O)c1ccc(Oc2ccc(Cl)cc2)cc1)n1ccnc1 (stereo not drawn) [Beispiel 24] | 4 µg/mL (≈ 11.7 µM) | 8 µg/mL (≈ 23.5 µM) | 4 µg/mL (≈ 11.7 µM) | 8 µg/mL (≈ 23.5 µM) | 4 µg/mL (≈ 11.7 µM) | bestimmte Wirkungen | +++ | bessere antimykotische Wirkung | +++ (Wirkung = 60 % Ueberlebende am 6.Tag p.i.) | bessere Wirkung | – | – | – | – | –
8 | CCCC(C(O)c1ccc(Oc2ccc(Cl)cc2)cc1)n1cncn1 (single isomer, unassigned) [Beispiel 32] | – | – | – | – | – | bestimmte Wirkungen | +++ | – | +++++ (sehr gute Wirkung = 90 % Ueberlebende am 6.Tag p.i.) | bessere Wirkung | – | – | – | – | –
9 | CCC(C(O)c1ccc(Oc2ccc(Cl)cc2)cc1)n1cncn1 (single isomer, unassigned) [Beispiel 30] | – | – | – | – | – | bestimmte Wirkungen | ++ | bessere antimykotische Wirkung | +++ (Wirkung = 60 % Ueberlebende am 6.Tag p.i.) | bessere Wirkung | <1 µg/mL | >64 µg/mL | 32 µg/mL | <1 µg/mL | <1 µg/mL
10 | CCCC(C(=O)c1ccc(Oc2ccc(Cl)cc2)cc1)n1cncn1 (stereo not drawn) [Beispiel 6] | – | – | – | – | – | bestimmte Wirkungen | ++++ | – | +++ (Wirkung = 60 % Ueberlebende am 6.Tag p.i.) | bessere Wirkung | – | – | – | – | –
